The source of these data is patent publication US20230219904A1 (SYNGENTA CROP PROTECTION AG, priority 2020, published 2023).

Holding throughout (format): in vivo
Conditions in all cases: evaluated after 13 days

Assay [1] deals with Echinochloa crus-galh (ECHCG). The assay can be described thus: Pre-emergence herbicidal glasshouse test (Table B1). In a few lines:
(§1)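 Potted plants, glasshouse 24/16° C, 14 h light, 65% RH; spray at 1 d (pre) or 8 d (post) post-sowing; 500 g/h default; acetone/water 50:50 + 0.5% Tween 20. Damage read at 13 d, scored 1–5 (5=80-100%, 1=0-19%).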

In assay [2] the test system is Abutilon theophrasti (ABUTH). The assay is described as above. In a few lines:
as §1

Assay [3] has as its system Ipomoea hederacea (IPOHE). The assay is described as above. The procedure, abridged:
as §1

The subject of assay [4] is Amaranthus retoflexus (AMARE). The assay is described as above. In a few lines:
as §1

Assay [5] relates to Setaria faberi (SETFA). The description is as above. In a few lines:
as §1

Assay [6] concerns Echinochloa crus-galh (ECHCG). The assay can be described thus: Post-emergence herbicidal glasshouse test (Table B1). In a few lines: as §1
For assay [7], the system named is Ipomoea hederacea (IPOHE). The description is as above. The procedure, abridged: as §1
Assay [8] relates to Amaranthus retoflexus (AMARE). The description is as above. In a few lines:
as §1

In assay [9] the test system is Setaria faberi (SETFA). The description is as above. In a few lines: as §1

On to `CCn1nnnc1NC(=O)c1ccc(OC(F)(F)F)c(NC(=O)c2ncccc2F)c1Cl` [Compound 1.094], for which, in assay [1] (applied at 500 g/h), the “PRE Application ECHCG, percentage damage on five-point scale” value (“PRE Application ECHCG, percentage damage” for short) is listed as 1 (1=0-19%). For the same compound, in assay [2] (applied at 500 g/h), the “PRE Application ABUTH, percentage damage on five-point scale” value (from here on “PRE Application ABUTH, percentage damage”) is 1 (1=0-19%). The “PRE Application IPOHE, percentage damage on five-point scale” value (from here on “PRE Application IPOHE, percentage damage”) in assay [3] (applied) is listed as 1 (1=0-19%). Also, the “PRE Application AMARE, percentage damage on five-point scale” value (from here on “PRE Application AMARE, percentage damage”) in assay [4] (applied at 500 g/h) was 5 (5=80-100%). Also, the “PRE Application SETFA, percentage damage on five-point scale” value (from here on “PRE Application SETFA, percentage damage”) in assay [5] (applied at 500 g/h) is given as 1 (1=0-19%). The “POST Application ECHCG, percentage damage on five-point scale” value in assay [6] (applied at 500 g/h) is 5 (5=80-100%). Further, the “POST Application IPOHE, percentage damage on five-point scale” value in assay [7] (applied at 500 g/h) was 5 (5=80-100%). Further, the “POST Application AMARE, percentage damage on five-point scale” value in assay [8] (applied at 500 g/h) is 5 (5=80-100%). Also, in assay [9] (applied at 500 g/h), the “POST Application SETFA, percentage damage on five-point scale” value was 5 (5=80-100%).
In the case of `CCOCCC(=O)Nc1c(OC(F)(F)F)ccc(C(=O)Nc2nnnn2CC)c1Cl` [Compound 1.077], in [1] (applied at 125 g/ha), the “PRE Application ECHCG, percentage damage” value is recorded as 5 (5=80-100%). Further, the “PRE Application ABUTH, percentage damage” value in assay [2] (applied at 125 g/ha) is recorded as 5 (5=80-100%). Further, in assay [3] (applied at 125 g/ha), the “PRE Application IPOHE, percentage damage” value is given as 5 (5=80-100%). For the same compound, the “PRE Application AMARE, percentage damage” value in [4] (applied at 125 g/ha) is 5 (5=80-100%). In addition, the “PRE Application SETFA, percentage damage” value in assay [5] (applied at 125 g/ha) is recorded as 3 (3=40-59%). The “POST Application ECHCG, percentage damage on five-point scale” value in assay [6] (applied at 125 g/ha) is on record as 5 (5=80-100%). Further, the “POST Application IPOHE, percentage damage on five-point scale” value in assay [7] (applied at 125 g/ha) is 4 (4=60-79%). Further, in [8] (applied at 125 g/ha), the “POST Application AMARE, percentage damage on five-point scale” value is 5 (5=80-100%). In [9] (applied at 125 g/ha), the “POST Application SETFA, percentage damage on five-point scale” value is 5 (5=80-100%).
Consider `CCC(COC)C(=O)Nc1c(OC(F)(F)F)ccc(C(=O)Nc2nnnn2CC)c1Cl` (stereo not drawn) [Compound 1.069], for which the “PRE Application ECHCG, percentage damage” value in [1] (applied at 125 g/ha) is on record as 5 (5=80-100%). For the same compound, the “PRE Application ABUTH, percentage damage” value in assay [2] (applied at 125 g/ha) is 5 (5=80-100%). Further, the “PRE Application IPOHE, percentage damage” value in assay [3] (applied at 125 g/ha) was 4 (4=60-79%). The “PRE Application AMARE, percentage damage” value in [4] (applied at 125 g/ha) is recorded as 5 (5=80-100%). Moreover, in assay [5] (applied at 125 g/ha), the “PRE Application SETFA, percentage damage” value is reported as 5 (5=80-100%). Further, in assay [6] (applied at 125 g/ha), the “POST Application ECHCG, percentage damage on five-point scale” value is 5 (5=80-100%). Moreover, the “POST Application IPOHE, percentage damage on five-point scale” value in assay [7] (applied at 125 g/ha) is on record as 4 (4=60-79%). The “POST Application AMARE, percentage damage on five-point scale” value in assay [8] (applied at 125 g/ha) is reported as 4 (4=60-79%). In assay [9] (applied at 125 g/ha), the “POST Application SETFA, percentage damage on five-point scale” value is on record as 5 (5=80-100%).
Consider `Cn1cc(C(=O)Nc2c(OC(F)(F)F)ccc(C(=O)Nc3nnnn3C)c2Cl)c(C(F)F)n1` [Compound 1.045], for which, in assay [1] (applied at 125 g/ha), the “PRE Application ECHCG, percentage damage” value is 5 (5=80-100%). Besides, the “PRE Application ABUTH, percentage damage” value in assay [2] (applied at 125 g/ha) is reported as 5 (5=80-100%). For the same compound, in assay [3] (applied at 125 g/ha), the “PRE Application IPOHE, percentage damage” value is on record as 4 (4=60-79%). In assay [4] (applied at 125 g/ha), the “PRE Application AMARE, percentage damage” value is 5 (5=80-100%). The “PRE Application SETFA, percentage damage” value in assay [5] (applied at 125 g/ha) is reported as 5 (5=80-100%). Also, in assay [6] (applied at 125 g/ha), the “POST Application ECHCG, percentage damage on five-point scale” value is 5 (5=80-100%). In addition, the “POST Application IPOHE, percentage damage on five-point scale” value in assay [7] (applied at 125 g/ha) is recorded as 4 (4=60-79%). For the same compound, the “POST Application AMARE, percentage damage on five-point scale” value in assay [8] (applied at 125 g/ha) is listed as 5 (5=80-100%). Further, the “POST Application SETFA, percentage damage on five-point scale” value in [9] (applied at 125 g/ha) is 5 (5=80-100%).
Consider `Cn1nnnc1NC(=O)c1ccc(OC(F)(F)F)c(NC(=O)C(F)F)c1Cl` [Compound 1.059], for which the “PRE Application ECHCG, percentage damage” value in [1] (applied at 125 g/ha) is 4 (4=60-79%). In addition, the “PRE Application ABUTH, percentage damage” value in assay [2] (applied at 125 g/ha) was 5 (5=80-100%). Moreover, in [3] (applied at 125 g/ha), the “PRE Application IPOHE, percentage damage” value is recorded as 3 (3=40-59%). In addition, in assay [4] (applied at 125 g/ha), the “PRE Application AMARE, percentage damage” value is given as 5 (5=80-100%). Moreover, the “PRE Application SETFA, percentage damage” value in assay [5] (applied at 125 g/ha) is 1 (1=0-19%). The “POST Application ECHCG, percentage damage on five-point scale” value in assay [6] (applied at 125 g/ha) is listed as 5 (5=80-100%). For the same compound, the “POST Application IPOHE, percentage damage on five-point scale” value in [7] (applied at 125 g/ha) was 3 (3=40-59%). Further, the “POST Application AMARE, percentage damage on five-point scale” value in assay [8] (applied at 125 g/ha) is recorded as 5 (5=80-100%). Moreover, in [9] (applied at 125 g/ha), the “POST Application SETFA, percentage damage on five-point scale” value is on record as 4 (4=60-79%).
`CCn1nnnc1NC(=O)c1ccc(OC(F)(F)F)c(NC(=O)C2(C)CC2)c1Cl` [Compound 1.075]: in assay [1] (applied at 125 g/ha), the “PRE Application ECHCG, percentage damage” value is recorded as 5 (5=80-100%). The “PRE Application ABUTH, percentage damage” value in [2] (applied at 125 g/ha) is given as 5 (5=80-100%). Further, the “PRE Application IPOHE, percentage damage” value in assay [3] (applied at 125 g/ha) is given as 5 (5=80-100%). For the same compound, in assay [4] (applied at 125 g/ha), the “PRE Application AMARE, percentage damage” value is on record as 5 (5=80-100%). Moreover, in assay [5] (applied at 125 g/ha), the “PRE Application SETFA, percentage damage” value is reported as 5 (5=80-100%). Besides, the “POST Application ECHCG, percentage damage on five-point scale” value in [6] (applied at 125 g/ha) was 4 (4=60-79%). Further, the “POST Application IPOHE, percentage damage on five-point scale” value in assay [7] (applied at 125 g/ha) is reported as 4 (4=60-79%). Moreover, the “POST Application AMARE, percentage damage on five-point scale” value in assay [8] (applied at 125 g/ha) is 4 (4=60-79%). For the same compound, the “POST Application SETFA, percentage damage on five-point scale” value in assay [9] (applied at 125 g/ha) is given as 5 (5=80-100%).
